# US11840497B2, “4-(p-quinonyl)-2-hydroxybutanamide derivatives for treatment of mitochondrial diseases” (PTC Therapeutics, Inc., priority 2007, dated 2023)
# Like-named read-outs stand apart in the source and are kept apart here.
# Experiments:
# Format in all cases: cell-based
# [1] = system: human dermal fibroblasts from LHON patients; experiment: Rescue of BSO-stressed fibroblasts from LHON patients (Example C); settings: Fibroblast, LHON fibroblasts GM03858, screen as Example A, read-out: protection against LHON, EC50
# Method: The compounds were tested for their ability to rescue human dermal fibroblasts from LHON patients from oxidative stress.
# [2] = system: Human dermal fibroblasts from Friedreich's Ataxia patients; experiment: Rescue of BSO-stressed FRDA fibroblasts (Example A); settings: FRDA fibroblasts GM04078, 1 mM BSO
# Method: Test samples, 4 reference compounds (idebenone, decylubiquinone, Trolox and α-tocopherol acetate), and solvent controls were tested for their ability to rescue FRDA fibroblasts stressed by addition of L-buthionine (S,R)-sulfoximine (BSO), as described in Jauslin et al., Hum. Mol. Genet. […] Mol. Genet. […] This specific BSO-mediated cell death can be prevented by administration of antioxidants or molecules involved in the antioxidant pathway, such as α-tocopherol, selenium, or small molecule glutathione peroxidase mimetics. However, antioxidants differ in their potency, i.e. the concentration at which they are able to rescue BSO-stressed FRDA fibroblasts.
# Fetal Calf Serum was obtained from PAA Laboratories. Basic fibroblast growth factor and epidermal growth factor were purchased from PeproTech. Penicillin-streptomycin-glutamine mix, L-buthionine (S,R)-sulfoximine, (+)-α-tocopherol acetate, decylubiquinone, and insulin from bovine pancreas were purchased from Sigma. Trolox (6-Hydroxy-2,5,7,8-tetramethylchroman-2-carboxylic acid) was obtained from Fluka. Idebenone was obtained from Chemo Iberica. Calcein AM was purchased from Molecular Probes. Cell culture medium was made by combining 125 ml M199 EBS, 50 ml Fetal Calf Serum, 100 U/ml penicillin, 100 μg/ml streptomycin, 2 mM glutamine, 10 μg/ml insulin, 10 ng/ml EGF, and 10 ng/ml bFGF; MEM EBS was added to make the volume up to 500 ml. […] During the course of the experiments, this solution was stored at +4° C. The cells were obtained from the Coriell Cell Repositories (Camden, NJ; repository number GM04078) and grown in 10 cm tissue culture plates. Every third day, they were split at a 1:3 ratio.
# The test samples were supplied in 1.5 ml glass vials. […] Once dissolved, they were stored at −20° C. Reference antioxidants (idebenone, decylubiquinone, α-tocopherol acetate and trolox) were dissolved in DMSO.
# Test samples were screened according to the following protocol: A culture with FRDA fibroblasts was started from a 1 ml vial with approximately 500,000 cells stored in liquid nitrogen. […] Once confluent, fibroblasts were harvested. […] The remaining cells were distributed in 10 cm cell culture plates (500,000 cells/plate) for propagation. The plates were incubated overnight at 37° C. in a atmosphere with 95% humidity and 5% CO2 to allow attachment of the cells to the culture plate.
# MTP medium (243 μl) was added to a well of the microtiter plate. […] Serial dilutions from the master solution were made. The period between the single dilution steps was kept as short as possible (generally less than 1 second).
# Plates were kept overnight in the cell culture incubator. The next day, 10 μl of a 10 mM BSO solution were added to the wells, resulting in a 1 mM final BSO concentration. Forty-eight hours later, three plates were examined under a phase-contrast microscope to verify that the cells in the 0% control (wells E1-H1) were clearly dead. The medium from all plates was discarded, and the remaining liquid was removed by gently tapping the plate inversed onto a paper towel.
# The plates were incubated for 50-70 minutes at room temperature. After that time the PBS was discarded, the plate gently tapped on a paper towel and fluorescence (excitation/emission wavelengths of 485 nm and 525 nm, respectively) was read on a Gemini fluorescence reader. Data was imported into Microsoft Excel (EXCEL is a registered trademark of Microsoft Corporation for a spreadsheet program) and used to calculate the EC50 concentration for each compound.
# The compounds were tested three times, i.e., the experiment was performed three times, the passage number of the cells increasing by one with every repetition.
# The viability of non-BSO treated fibroblasts was set as 100%, and the viability of the BSO- and compound-treated cells was calculated as relative to this value.
# [3] = system: human dermal fibroblasts from Huntington's patients; experiment: Rescue of BSO-stressed fibroblasts from Huntington's patients (Example B); settings: Fibroblast, Huntington's fibroblasts GM 04281, screen as Example A, read-out: protection against Hungtington's, EC50
# Method: The compounds were tested for their ability to rescue human dermal fibroblasts from Huntington's patients from oxidative stress.
# [4] = read-out: protection against FRDA, EC50
# [5] = Calcein AM viability, average of three values, read-out: EC50 Average
# [6] = Calcein AM viability, experiment 1 of 3, read-out: EC50 Value 1
# [7] = Calcein AM viability, experiment 2 of 3, read-out: EC50 Value 2
# [8] = Calcein AM viability, experiment 3 of 3, read-out: EC50 Value 3
Compound,EC50 [1] [nM],"EC50 [2, 4] [nM]",EC50 [3] [nM],further results
"CC1=C(C)C(=O)C(CCC(C)(O)C(=O)N2CCN(C(=O)c3ccccc3)CC2)=C(C)C1=O (centres unmarked) [2-(4-(4-benzoylpiperazin-1-yl)-3-hydroxy-3-methyl-4-oxobutyl)-3,5,6-trimethylcyclohexa-2,5-diene-1,4-dione]",< 100,–,–,–
"CC1=C(C)C(=O)C(CCC(C)(O)C(=O)N2CCCCCC2)=C(C)C1=O (centres unmarked) [2-(4-(azepan-1-yl)-3-hydroxy-3-methyl-4-oxobutyl)-3,5,6-trimethylcyclohexa-2,5-diene-1,4-dione]",< 100,–,–,–
"CC1=C(C)C(=O)C(CCC(C)(O)C(=O)NCCCS(C)(=O)=O)=C(C)C1=O (centres unmarked) [2-hydroxy-2-methyl-N-(3-(methylsulfonyl)propyl)-4-(2,4,5-trimethyl-3,6-dioxocyclohexa-1,4-dienyl)butanamide]",< 100,–,–,–
"CC1=C(C)C(=O)C(CCC(C)(O)C(=O)NCc2ccncc2)=C(C)C1=O (centres unmarked) [2-hydroxy-2-methyl-N-(pyridin-4-ylmethyl)-4-(2,4,5-trimethyl-3,6-dioxocyclohexa-1,4-dienyl)butanamide]",< 100,–,–,–
"COc1ccc(NC(=O)C(C)(O)CCC2=C(C)C(=O)C(C)=C(C)C2=O)cc1 (centres unmarked) [2-hydroxy-N-(4-methoxyphenyl)-2-methyl-4-(2,4,5-trimethyl-3,6-dioxocyclohexa-1,4-dienyl)butanamide]",–,< 100,< 100,–
"CC1=C(C)C(=O)C(CC[C@@](C)(O)C(=O)N2CCC(O)CC2)=C(C)C1=O [(R)-2-(3-hydroxy-4-(4-hydroxypiperidin-1-yl)-3-methyl-4-oxobutyl)-3,5,6-trimethylcyclohexa-2,5-diene-1,4-dione]",< 100,< 100,–,–
"CC(=O)N1CCN(C(=O)[C@](C)(O)CCC2=C(C)C(=O)C(C)=C(C)C2=O)CC1 [(R)-2-(4-(4-acetylpiperazin-1-yl)-3-hydroxy-3-methyl-4-oxobutyl)-3,5,6-trimethylcyclohexa-2,5-diene-1,4-dione]",< 100,< 100,< 100,–
"CC1=C(C)C(=O)C(CC[C@@](C)(O)C(N)=O)=C(C)C1=O [(R)-2-hydroxy-2-methyl-4-(2,4,5-trimethyl-3,6-dioxocyclohexa-1,4-dienyl)butanamide]",< 100,< 100,< 100,–
"CC1=C(C)C(=O)C(CC[C@](C)(O)C(=O)N2CCC(O)CC2)=C(C)C1=O [(S)-2-(3-hydroxy-4-(4-hydroxypiperidin-1-yl)-3-methyl-4-oxobutyl)-3,5,6-trimethylcyclohexa-2,5-diene-1,4-dione]",< 100,< 100,–,–
"CC(=O)N1CCN(C(=O)[C@@](C)(O)CCC2=C(C)C(=O)C(C)=C(C)C2=O)CC1 [(S)-2-(4-(4-acetylpiperazin-1-yl)-3-hydroxy-3-methyl-4-oxobutyl)-3,5,6-trimethylcyclohexa-2,5-diene-1,4-dione]",< 100,< 100,< 100,–
"CC1=C(C)C(=O)C(CCC(C)(O)C(=O)NCCC(C)C)=C(C)C1=O (centres unmarked) [Example 7, 2-Hydroxy-N-isopentyl-2-methyl-4-(2,4,5-trimethyl-3,6-dioxocyclohexa-1,4-dienyl)butanamide]",< 100,–,–,–
"CC1=C(C)C(=O)C(CCC(C)(O)C(=O)NCCCO)=C(C)C1=O (centres unmarked) [Example 9, 2-Hydroxy-N-(3-hydroxypropyl)-2-methyl-4-(2,4,5-trimethyl-3,6-dioxocyclohexa-1,4-dienyl)butanamide]",< 100,< 100,< 100,–
"CC1=C(C)C(=O)C(CCC(C)(O)C(=O)N2CCN(C)CC2)=C(C)C1=O (centres unmarked) [Example 14, 2-(3-Hydroxy-3-methyl-4-(4-methylpiperazin-1-yl)-4-oxobutyl)-3,5,6-trimethylcyclohexa-2,5-diene-1,4-dione]",–,< 100,< 100,–
"CC1=C(C)C(=O)C(CCC(C)(O)C(=O)NCCCCO)=C(C)C1=O (centres unmarked) [Example 17, 2-Hydroxy-N-(4-hydroxybutyl)-2-methyl-4-(2,4,5-trimethyl-3,6-dioxocyclohexa-1,4-dienyl)butanamide]",< 100,< 100,< 100,–
"CC1=C(C)C(=O)C(CCC(C)(O)C(=O)NCCCN2CCCC2=O)=C(C)C1=O (centres unmarked) [Example 29, 2-Hydroxy-2-methyl-N-(3-(2-oxopyrrolidin-1-yl)-propyl)-4-(2,4,5-trimethyl-3,6-dioxocyclohexa-1,4-dienyl)butanamide]",–,–,< 100,–
"CC1=C(C)C(=O)C(CCC(C)(O)C(=O)NCC(C)O)=C(C)C1=O (centres unmarked) [Example 30, 2-Hydroxy-N-(2-hydroxypropyl)-2-methyl-4-(2,4,5-trimethyl-3,6-dioxocyclohexa-1,4-dienyl)butanamide]",< 100,< 100,–,–
"CC1=C(C)C(=O)C(CCC(C)(O)C(=O)NCCCN2CCOCC2)=C(C)C1=O (centres unmarked) [Example 33, 2-Hydroxy-2-methyl-N-(3-morpholinopropyl)-4-(2,4,5-trimethyl-3,6-dioxocyclohexa-1,4-dienyl)butanamide]",–,< 100,< 100,–
"CC1=C(C)C(=O)C(CCC(C)(O)C(=O)N(CCO)CCO)=C(C)C1=O (centres unmarked) [Example 35, 2-Hydroxy-N,N-bis(2-hydroxyethyl)-2-methyl-4-(2,4,5-trimethyl-3,6-dioxocyclohexa-1,4-dienyl)butanamide]",–,< 100,< 100,–
"CC1=C(C)C(=O)C(CCC(C)(O)C(=O)N2CCCCC2)=C(C)C1=O (centres unmarked) [Example 42, 2-(3-Hydroxy-3-methyl-4-oxo-4-(piperidin-1-yl)butyl)-3,5,6-trimethylcyclohexa-2,5-diene-1,4-dione]",< 100,–,–,–
"COC1=C(OC)C(=O)C(CCCCCCCCCCO)=C(C)C1=O [Idebenone, reference compound]",–,–,–,"EC50 [2, 5]: 1200 nM; EC50 [2, 6]: 1500 nM; EC50 [2, 7]: 1000 nM; EC50 [2, 8]: 1000 nM"
"CC1=C(C)C(=O)C(CCC(C)(O)C(=O)NCCc2ccccc2F)=C(C)C1=O (centres unmarked) [N-(2-fluorophenethyl)-2-hydroxy-2-methyl-4-(2,4,5-trimethyl-3,6-dioxocyclohexa-1,4-dienyl)butanamide]",< 100,< 100,–,–
"CC1=C(C)C(=O)C(CCC(C)(O)C(=O)NCCc2cccc(F)c2)=C(C)C1=O (centres unmarked) [N-(3-fluorophenethyl)-2-hydroxy-2-methyl-4-(2,4,5-trimethyl-3,6-dioxocyclohexa-1,4-dienyl)butanamide]",< 100,< 100,–,–
"Cc1c(C)c2c(c(C)c1O)CCC(C)(C(=O)O)O2 (centres unmarked) [Trolox, 6-Hydroxy-2,5,7,8-tetramethylchroman-2-carboxylic acid, reference compound]",–,–,–,"EC50 [2, 5]: 8700 nM; EC50 [2, 6]: 9000 nM; EC50 [2, 7]: 9000 nM; EC50 [2, 8]: 8000 nM"
"CC(=O)Oc1c(C)c(C)c2c(c1C)CCC(C)(CCC[C@H](C)CCC[C@H](C)CCCC(C)C)O2 (stereo partly drawn) [alpha-tocopherol acetate, (+)-α-tocopherol acetate, reference compound]",–,–,–,"EC50 [2, 5]: 300 nM; EC50 [2, 6]: 400 nM; EC50 [2, 7]: 150 nM; EC50 [2, 8]: 350 nM"
"CCCCCCCCCCC1=C(C)C(=O)C(OC)=C(OC)C1=O [decylubiquinone, reference compound]",–,–,–,"EC50 [2, 5]: 38 nM; EC50 [2, 6]: 50 nM; EC50 [2, 7]: 35 nM; EC50 [2, 8]: 30 nM"
